These results are taken from paper PMC11175446 (2024).

Each structure is given as a SMILES string.

Experiment [1] deals with Broccoli run-off transcript of the 251 bp T7 promoter-O1-Broccoli template (RNA, aptamer) GGCAAUUGUGAGCGGAUAACAAUUCUAGAUUGCCAUGUGUAUGUGGGAGACGGUCGGGUCCAGAUAUUCGUAUCUGUCGAGUAGAGUGUGGGCUCCCACAUACUCUGAUGAUCCUUCGGGAUCAUUCAUGGCAAGGAUCCG
As to the kind of experiment: fluorescence turn-on during in vitro transcription. The settings on record: 25 mM NaCl, 8 mM MgCl2; 40 mM Tris-HCl pH 8.0, 2 mM spermidine, 5 mM DTT, 34 °C, 20 μM dye; NTPs, T7 RNAP present.

Experiment [2] concerns 2xF30-Broccoli RNA (Bi), transcript of T7 promoter-Broccoli template without operator (RNA, aptamer) UUGCCAUGUGUAUGUGGGAGACGGUCGGGUCCAGAUAUUCGUAUCUGUCGAGUAGAGUGUGGGCUCCCACAUACUCUGAUGAUCCUUCGGGAUCAUUCAUGGCAA
As to the kind of experiment: fluorescence turn-on during in vitro transcription. The settings on record: 25 mM NaCl, 8 mM MgCl2; 40 mM Tris-HCl pH 8.0, 2 mM spermidine, 5 mM DTT, 34 °C, 20 μM dye; NTPs, T7 RNAP present.

Turning to `CC1=N/C(=C\c2cc(F)c(O)c(F)c2)C(=O)N1CC(F)(F)F`, the binding result in experiment [1] and in experiment [2] was “yes” each time.
